# Test results reported in PMC6440464 (PeerJ, 2019).
# Where “and” joins values, the source holds several entries; their conditions need not be identical. Identical values can stand only once.
# Assay: Stability of the analytes in rat plasma QC samples at different storage conditions
# Assay type: in vitro ADME
# Settings: for Post-preparation stability (4℃ for 24 h) Measured Conc.: extracted plasma samples in auto sampler rack; for Post-preparation stability (4℃ for 24 h) Measured Conc. / Free-thaw stability (3 free-thaw cycles) Measured Conc. / Long-term stability (-80℃ for 15 d) Measured Conc. / Short-term stability (25℃ for 12 h) Measured Conc.: n=5; for Free-thaw stability, Test Conc., AV / Free-thaw stability, Test Conc. / Post-preparation stability, Test Conc., AV / Post-preparation stability, Test Conc. / Short-term stability, Test Conc., AV / Short-term stability, Test Conc. / Long-term stability, Test Conc., AV / Long-term stability, Test Conc.: plasma; for Free-thaw stability, Test Conc., AV / Free-thaw stability, Test Conc.: 3 free-thaw cycles; for Free-thaw stability, Test Conc., AV / Post-preparation stability, Test Conc., AV / Short-term stability, Test Conc., AV / Long-term stability, Test Conc., AV: AV of 5 replicates; for Free-thaw stability, Test Conc. / Post-preparation stability, Test Conc. / Short-term stability, Test Conc. / Long-term stability, Test Conc.: single replicates NO.1-NO.5; for Post-preparation stability, Test Conc., AV / Post-preparation stability, Test Conc.: 4℃ for 24 h; for Short-term stability, Test Conc., AV / Short-term stability, Test Conc.: 25℃ for 12 h; for Long-term stability, Test Conc., AV / Long-term stability, Test Conc.: -80℃ for 15 d; for Free-thaw stability (3 free-thaw cycles) Measured Conc. / Long-term stability (-80℃ for 15 d) Measured Conc. / Short-term stability (25℃ for 12 h) Measured Conc.: rat plasma
# Experimental: The stabilities of Qr, IQ, and QG in plasma were assessed by analyzing QC samples at different storage conditions. The stabilities of three flavonoids in plasma were studied by analyzing three concentration levels of QC samples (n = 5) at room temperature (25 °C) for 12 h, at long-term storage (−80 °C for 15 days), after three freeze (−80 °C) and thaw (room temperature) cycles, and at auto sampler rack storage (4 °C for 24 h).
# [1] = high QC, nominal 8400.0 (Qr), 976.0 (IQ), 10000.0 (QG) ng/mL
# [2] = low QC, nominal 65.6 (Qr), 48.8 (IQ), 100.0 (QG) ng/mL
# [3] = nominal Conc. 48.80 ng/mL, listed as Isoquercitrin (IQ)
# [4] = nominal Conc. 244.00 ng/mL, listed as Isoquercitrin (IQ)
# [5] = nominal Conc. 976.00 ng/mL, listed as Isoquercitrin (IQ)
# [6] = medium QC, nominal 525.0 (Qr), 244.0 (IQ), 1000.0 (QG) ng/mL
# [7] = nominal Conc. 65.63 ng/mL, listed as Quercetin (Qr)
# [8] = nominal Conc. 525.00 ng/mL, listed as Quercetin (Qr)
# [9] = nominal Conc. 8400.00 ng/mL, listed as Quercetin (Qr)
smiles,measurement,setting,value
"O=c1c(O[C@@H]2O[C@H](CO)[C@@H](O)[C@H](O)[C@H]2O)c(-c2ccc(O)c(O)c2)oc2cc(O)cc(O)c12 [IQ, Isoquercitrin]",Post-preparation stability (4℃ for 24 h) Measured Conc.,[1],937.6 ± 55.4 ng/mL
same,Post-preparation stability (4℃ for 24 h) Measured Conc.,[2],45.3 ± 1.4 ng/mL
same,Post-preparation stability (4℃ for 24 h) Measured Conc.,,255.6 ± 16.0 ng/mL
same,"Free-thaw stability, Test Conc., AV",nominal Conc. 48.80 ng/mL,50.35 ng/mL
same,"Free-thaw stability, Test Conc.",[3],49.95 ng/mL and 49.90 ng/mL and 50.70 ng/mL and 48.08 ng/mL and 53.12 ng/mL
same,"Free-thaw stability, Test Conc., AV",nominal Conc. 244.00 ng/mL,242.47 ng/mL
same,"Free-thaw stability, Test Conc.",[4],230.75 ng/mL and 211.89 ng/mL and 256.83 ng/mL and 252.00 ng/mL and 260.86 ng/mL
same,"Free-thaw stability, Test Conc., AV",nominal Conc. 976.00 ng/mL,1028.98 ng/mL
same,"Free-thaw stability, Test Conc.",[5],934.23 ng/mL and 1056.62 ng/mL and 1064.04 ng/mL and 1091.46 ng/mL and 998.55 ng/mL
same,"Post-preparation stability, Test Conc., AV",nominal Conc. 48.80 ng/mL,45.28 ng/mL
same,"Post-preparation stability, Test Conc.",[3],45.29 ng/mL and 43.89 ng/mL and 47.57 ng/mL and 44.33 ng/mL and 45.34 ng/mL
same,"Post-preparation stability, Test Conc., AV",nominal Conc. 244.00 ng/mL,255.64 ng/mL
same,"Post-preparation stability, Test Conc.",[4],246.59 ng/mL and 233.24 ng/mL and 257.98 ng/mL and 268.81 ng/mL and 271.60 ng/mL
same,"Post-preparation stability, Test Conc., AV",nominal Conc. 976.00 ng/mL,937.62 ng/mL
same,"Post-preparation stability, Test Conc.",[5],857.22 ng/mL and 1007.33 ng/mL and 922.61 ng/mL and 936.47 ng/mL and 964.48 ng/mL
same,"Short-term stability, Test Conc., AV",nominal Conc. 48.80 ng/mL,51.25 ng/mL
same,"Short-term stability, Test Conc.",[3],51.42 ng/mL and 50.11 ng/mL and 53.70 ng/mL and 49.73 ng/mL and 51.28 ng/mL
same,"Short-term stability, Test Conc., AV",nominal Conc. 244.00 ng/mL,228.97 ng/mL
same,"Short-term stability, Test Conc.",[4],224.99 ng/mL and 229.24 ng/mL and 227.58 ng/mL and 250.98 ng/mL and 212.08 ng/mL
same,"Short-term stability, Test Conc., AV",nominal Conc. 976.00 ng/mL,902.68 ng/mL
same,"Short-term stability, Test Conc.",[5],885.52 ng/mL and 865.13 ng/mL and 936.37 ng/mL and 947.50 ng/mL and 878.89 ng/mL
same,"Long-term stability, Test Conc., AV",nominal Conc. 48.80 ng/mL,43.53 ng/mL
same,"Long-term stability, Test Conc.",[3],40.64 ng/mL and 40.98 ng/mL and 46.59 ng/mL and 45.84 ng/mL and 43.59 ng/mL
same,"Long-term stability, Test Conc., AV",nominal Conc. 244.00 ng/mL,226.97 ng/mL
same,"Long-term stability, Test Conc.",[4],232.85 ng/mL and 226.55 ng/mL and 237.44 ng/mL and 224.60 ng/mL and 213.40 ng/mL
same,"Long-term stability, Test Conc., AV",nominal Conc. 976.00 ng/mL,947.77 ng/mL
same,"Long-term stability, Test Conc.",[5],1047.44 ng/mL and 988.88 ng/mL and 924.76 ng/mL and 931.40 ng/mL and 846.39 ng/mL
same,Free-thaw stability (3 free-thaw cycles) Measured Conc.,[1],1029.0 ± 62.9 ng/mL
same,Long-term stability (-80℃ for 15 d) Measured Conc.,[1],947.8 ± 75.3 ng/mL
same,Short-term stability (25℃ for 12 h) Measured Conc.,[1],902.7 ± 36.8 ng/mL
same,Free-thaw stability (3 free-thaw cycles) Measured Conc.,[2],50.4 ± 1.8 ng/mL
same,Long-term stability (-80℃ for 15 d) Measured Conc.,[2],43.5 ± 2.7 ng/mL
same,Short-term stability (25℃ for 12 h) Measured Conc.,[2],51.3 ± 1.6 ng/mL
same,Free-thaw stability (3 free-thaw cycles) Measured Conc.,[6],242.5 ± 20.7 ng/mL
same,Long-term stability (-80℃ for 15 d) Measured Conc.,[6],227.0 ± 9.1 ng/mL
same,Short-term stability (25℃ for 12 h) Measured Conc.,[6],229.0 ± 14.0 ng/mL
"O=c1c(O)c(-c2ccc(O)c(O)c2)oc2cc(O)cc(O)c12 [Qr, Quercetin]",Post-preparation stability (4℃ for 24 h) Measured Conc.,[1],7642.7 ± 675.6 ng/mL
same,Post-preparation stability (4℃ for 24 h) Measured Conc.,[2],61.0 ± 4.5 ng/mL
same,Post-preparation stability (4℃ for 24 h) Measured Conc.,,526.3 ± 60.5 ng/mL
same,"Free-thaw stability, Test Conc., AV",nominal Conc. 65.63 ng/mL,65.26 ng/mL
same,"Free-thaw stability, Test Conc.",[7],66.42 ng/mL and 58.78 ng/mL and 57.77 ng/mL and 73.55 ng/mL and 69.78 ng/mL
same,"Free-thaw stability, Test Conc., AV",nominal Conc. 525.00 ng/mL,511.91 ng/mL
same,"Free-thaw stability, Test Conc.",[8],492.92 ng/mL and 484.10 ng/mL and 471.66 ng/mL and 550.36 ng/mL and 560.49 ng/mL
same,"Free-thaw stability, Test Conc., AV",nominal Conc. 8400.00 ng/mL,8631.34 ng/mL
same,"Free-thaw stability, Test Conc.",[9],7999.32 ng/mL and 7943.88 ng/mL and 8238.72 ng/mL and 9682.68 ng/mL and 9292.08 ng/mL
same,"Post-preparation stability, Test Conc., AV",nominal Conc. 65.63 ng/mL,61.04 ng/mL
same,"Post-preparation stability, Test Conc.",[7],58.85 ng/mL and 54.07 ng/mL and 64.70 ng/mL and 64.32 ng/mL and 63.25 ng/mL
same,"Post-preparation stability, Test Conc., AV",nominal Conc. 525.00 ng/mL,526.26 ng/mL
same,"Post-preparation stability, Test Conc.",[8],568.94 ng/mL and 459.48 ng/mL and 463.10 ng/mL and 552.93 ng/mL and 586.85 ng/mL
same,"Post-preparation stability, Test Conc., AV",nominal Conc. 8400.00 ng/mL,7642.66 ng/mL
same,"Post-preparation stability, Test Conc.",[9],6882.12 ng/mL and 7943.04 ng/mL and 7529.76 ng/mL and 8629.32 ng/mL and 7229.04 ng/mL
same,"Short-term stability, Test Conc., AV",nominal Conc. 65.63 ng/mL,60.80 ng/mL
same,"Short-term stability, Test Conc.",[7],57.16 ng/mL and 57.07 ng/mL and 64.40 ng/mL and 62.26 ng/mL and 63.12 ng/mL
same,"Short-term stability, Test Conc., AV",nominal Conc. 525.00 ng/mL,474.02 ng/mL
same,"Short-term stability, Test Conc.",[8],478.01 ng/mL and 472.87 ng/mL and 443.05 ng/mL and 442.10 ng/mL and 534.08 ng/mL
same,"Short-term stability, Test Conc., AV",nominal Conc. 8400.00 ng/mL,7949.42 ng/mL
same,"Short-term stability, Test Conc.",[9],8294.16 ng/mL and 7882.56 ng/mL and 8019.48 ng/mL and 7925.40 ng/mL and 7625.52 ng/mL
same,"Long-term stability, Test Conc., AV",nominal Conc. 65.63 ng/mL,59.99 ng/mL
same,"Long-term stability, Test Conc.",[7],54.24 ng/mL and 60.01 ng/mL and 62.03 ng/mL and 66.54 ng/mL and 57.14 ng/mL
same,"Long-term stability, Test Conc., AV",nominal Conc. 525.00 ng/mL,500.71 ng/mL
same,"Long-term stability, Test Conc.",[8],493.55 ng/mL and 501.01 ng/mL and 547.68 ng/mL and 448.04 ng/mL and 513.29 ng/mL
same,"Long-term stability, Test Conc., AV",nominal Conc. 8400.00 ng/mL,7982.86 ng/mL
same,"Long-term stability, Test Conc.",[9],7842.24 ng/mL and 9005.64 ng/mL and 8321.88 ng/mL and 7922.88 ng/mL and 6821.64 ng/mL
same,Free-thaw stability (3 free-thaw cycles) Measured Conc.,[1],8631.3 ± 801.3 ng/mL
same,Long-term stability (-80℃ for 15 d) Measured Conc.,[1],7982.9 ± 795.7 ng/mL
same,Short-term stability (25℃ for 12 h) Measured Conc.,[1],7949.4 ± 241.7 ng/mL
same,Free-thaw stability (3 free-thaw cycles) Measured Conc.,[2],65.3 ± 6.9 ng/mL
same,Long-term stability (-80℃ for 15 d) Measured Conc.,[2],60.0 ± 4.7 ng/mL
same,Short-term stability (25℃ for 12 h) Measured Conc.,[2],60.8 ± 3.5 ng/mL
same,Free-thaw stability (3 free-thaw cycles) Measured Conc.,[6],511.9 ± 40.6 ng/mL
same,Long-term stability (-80℃ for 15 d) Measured Conc.,[6],500.7 ± 36.0 ng/mL
same,Short-term stability (25℃ for 12 h) Measured Conc.,[6],474.0 ± 37.4 ng/mL
